This passage reports Ki results from ChEMBL document CHEMBL1152626, “Glucose-based spiro-isoxazolines: a new family of potent glycogen phosphorylase inhibitors” (Bioorg Med Chem, 2009).

Where only a bound is given, the exact number is not on record here.

As a reminder, the Ki is the dissociation constant of the complex between target and ligand, obtained from inhibition or displacement. The low end stands for a stronger hold on the target, the high end for a looser hold on the target.

The assay addresses T1, Glycogen phosphorylase, muscle form (Oryctolagus cuniculus, UniProt P00489).
T1 sequence (P00489 whole entry): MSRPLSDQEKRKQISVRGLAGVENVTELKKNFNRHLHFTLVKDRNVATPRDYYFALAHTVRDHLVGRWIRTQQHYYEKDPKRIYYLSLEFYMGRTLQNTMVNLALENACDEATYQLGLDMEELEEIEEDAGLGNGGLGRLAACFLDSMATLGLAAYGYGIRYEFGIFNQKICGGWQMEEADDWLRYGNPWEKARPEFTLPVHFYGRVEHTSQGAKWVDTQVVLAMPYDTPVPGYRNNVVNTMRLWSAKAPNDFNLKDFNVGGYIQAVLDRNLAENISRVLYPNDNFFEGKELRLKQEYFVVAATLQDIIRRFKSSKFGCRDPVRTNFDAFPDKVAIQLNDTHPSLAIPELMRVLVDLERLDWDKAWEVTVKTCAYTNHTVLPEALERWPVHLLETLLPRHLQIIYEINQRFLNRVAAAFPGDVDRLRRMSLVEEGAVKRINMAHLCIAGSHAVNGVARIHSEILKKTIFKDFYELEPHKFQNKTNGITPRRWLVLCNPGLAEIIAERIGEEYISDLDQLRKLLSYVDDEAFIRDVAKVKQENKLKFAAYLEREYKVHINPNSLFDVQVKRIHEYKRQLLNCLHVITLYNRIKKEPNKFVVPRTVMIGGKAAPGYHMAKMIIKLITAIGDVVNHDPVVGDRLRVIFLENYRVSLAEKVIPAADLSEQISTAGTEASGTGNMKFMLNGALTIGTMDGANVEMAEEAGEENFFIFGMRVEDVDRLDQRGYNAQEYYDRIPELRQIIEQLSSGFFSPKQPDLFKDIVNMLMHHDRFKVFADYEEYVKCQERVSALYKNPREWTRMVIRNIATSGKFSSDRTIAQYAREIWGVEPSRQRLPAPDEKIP
In words: Inhibition of rabbit muscle glycogen phosphorylase b.
Regarding `O=C1NC(=O)[C@]2(C[C@H](O)[C@@H]([C@@H](O)CO)O2)N1`, the Ki was determined as 220000 µM. The compound `O=C1NC(=O)[C@@]2(C[C@H](O)[C@@H]([C@@H](O)CO)O2)N1` displayed an inhibition constant (Ki) of 8200 µM. `CN1C(=O)N[C@@]2(O[C@H](CO)[C@@H](O)[C@H](O)[C@H]2O)C1=O` registered an inhibition constant (Ki) of 1200 µM. Then `NN1C(=O)N[C@@]2(O[C@H](CO)[C@@H](O)[C@H](O)[C@H]2O)C1=O`, with 146 µM; and `O=C1N[C@@]2(O[C@H](CO)[C@@H](O)[C@H](O)[C@H]2O)C(=O)N1O`, with 39 µM; and `O=C1NC(=S)N[C@@]12OC[C@@H](O)[C@H](O)[C@H]2O`, with more than 10000 µM. Then `CC(=O)NN1C(=O)N[C@@]2(O[C@H](CO)[C@@H](O)[C@H](O)[C@H]2O)C1=O`, with 550 µM; and `O=C1NC(=O)[C@@]2(N1)OC[C@@H](O)[C@H](O)[C@H]2O`, with more than 11500 µM; and `O=C1NCC(O)NC12O[C@H](CO)[C@@H](O)[C@H](O)[C@H]2O` (some centres undefined), with 59.7 µM.
